Experimental findings from patent US7732456B2, “Pyridone derivative” (Banyu Pharmaceutical Co., Ltd., priority 2004, dated 2010) are described below.

Data set [1] can be described thus: Internal kinetics test (plasma concentration after oral or intravenous administration). The class given is in vivo. Conditions: SD male rats fasted overnight. On the procedure:
A test compound was orally or intravenously administered to SD male rats (7 to 10 weeks-age, 200 to 400 g) which had fasted overnight, and within a predetermined period of time, about 100 μL of the blood per rat was collected via the tail vein, using a heparinized capillary. The blood was centrifuged (4° C., 6,000 rpm, 10 minutes) to provide plasma. To the plasma tree-fold the amount thereof of ethanol (including an internal standard substance) was added and stored, followed by standing at −20° C. for 20 minutes and then centrifuge (4° C., 10,000 rpm, 10 minutes). The supernatant was analyzed through LC/MS/MS, and the plasma concentration of the test compound was quantified according to a relative calibration curve method.

The target in data set [2] is T1, human MCH-1R (Homo sapiens, UniProt Q99705).
T1 construct: expressed in transfected cells; host or cells: CHO-K1 (American Type Culture Collection), plasmid vector pEF/myc/cyto (Invitrogen)
T1 sequence (Q99705 whole entry): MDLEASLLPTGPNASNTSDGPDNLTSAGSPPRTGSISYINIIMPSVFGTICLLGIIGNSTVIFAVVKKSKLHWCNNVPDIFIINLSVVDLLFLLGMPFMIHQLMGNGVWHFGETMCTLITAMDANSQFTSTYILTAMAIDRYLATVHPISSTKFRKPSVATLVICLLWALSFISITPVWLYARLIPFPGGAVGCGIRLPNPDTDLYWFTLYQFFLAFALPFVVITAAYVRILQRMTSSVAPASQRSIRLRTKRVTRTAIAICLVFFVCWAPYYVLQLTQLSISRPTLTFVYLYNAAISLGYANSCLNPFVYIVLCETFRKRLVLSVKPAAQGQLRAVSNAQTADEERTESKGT
The experiment in a line: MCH binding inhibition test. To be noted: membranes of CHO-K1 cells expressing human MCH-1R, 50 pM [125I]MCH, 25° C., an hour; read-out: IC50 (50% inhibition concentration to specific [125I]MCH binding). On the procedure:
The obtained expression vector was transfected to a host cell CHO-K1 (American Type Culture Collection) using Lipofectamine Plus Reagent (Life Technology Inc.) to provide MCH-1R expression cells.
After washing the glass filter with 50 mM Tris buffer (pH7.4) comprising 10 mM magnesium chloride, 2 mM ethylenediamine tetraacetate and 0.04% Tween-20, radiative activity on the glass filter was measured. […] MCH binding was determined.

Regarding `O=c1cc(OCc2ccc(F)cc2)ccn1-c1ccc(OCCN2CCCC2)cc1` [Example 29, 4-(4-Fluorobenzyloxy)-1-{4-[2-(1-pyrrolidinyl)ethoxy]phenyl}-1H-pyridin-2-one], the “half-value period in blood” value in data set [1] is 3.9 h. Also, the bioavailability (in general, the share of a dose that reaches the circulation, judged against a reference dose that is usually intravenous) in data set [1] (rat, plasma, oral) was 79%. Moreover, the IC50 in data set [2] came out at 5.6 nM.
